Measurements reported in patent US9463174B2, “Pharmaceutical composition for the treatment of type-1 diabetes” (priority 2008, dated 2016).
“Also recorded” adds a separate entry of the source.

Tests used:
[1] = test system: established diabetic MLDS-mice; experiment: Reversal of well established diabetes in MLDS-mice by daily GABA injection; type: in vivo
Procedure: To investigate if GABA can reverse diabetes, daily GABA injection was started in well established diabetes in MLDS-mice (blood glucose>30 mM).
(§1) The techniques used for the in vivo and in vitro studies in this embodiment of the disclosure are also described. CD1 mice (Charles River Laboratories, St Constant, Canada), NOD mice and transgenic TCR NOD mice (Jackson Laboratory, USA) were housed under a controlled temperature and a 12-h light/12-h dark cycle in the St. Michael's Hospital Animal facility with free access to food (normal rodent chow) and water, except where noted. All procedures were conducted according to protocols and guidelines approved by the Canadian Council of Animal Care and the St. Michael's Hospital Animal Care committee. Mice were treated with GABA by daily intraperitoneal (i.p.) injection of 20·g GABA per mouse to reach ˜200 μM circulation concentration and PBS as control. The daily treatment is continuously conducted during 60-day experimental period. One wk after the GABA and PBS treatment, diabetes was induced in both groups by i.p.-injection of low-dose streptozotocin (STZ, Sigma Chemical Co., St. Louis, Mo. 40 mg/kg body weight) for 5 consecutive days. The development of hyperglycemia was monitored by measuring blood glucose from the tail vein every third day following STZ injections using an Ascensia ELITE® XL glucose meter. For some studies, overtly diabetic mice induced by STZ and without GABA treatment were divided into two groups: one group started receiving daily i.p. injection of 20·g GABA whereas other group received only PBS. The treatment was continued for 75 days. The handling of the NOD mice were similar to those CD1 mice except the STZ injection. The NOD mice have a susceptibility to spontaneous development of autoimmune T1D. The TCR transgenic 8.3-NOD mice have a markedly accelerated disease (J. Vergdaguer et al, 1997 J Exp Med. 186(10):1663-76).
Groups of mice were subject to a glucose tolerance test (IPGTT) before treatment (day 0), one, three, and five weeks after administration and the day prior termination. For IPGTT, mice were fasted overnight for 15 h, and were given 1.5 g glucose/kg body weight via i.p.-injection. Blood was drawn from the tail vein and blood glucose was measured at 0, 10, 20, 30, 60, 90, and 120 min after glucose administration.
Mice were housed in metabolic cages prior to initiation of GABA and PBS treatment and before termination of experiments. Food intake, water consumption and urine output were measured. To determine the fat distribution, three intra-abdominal fat pads retroperitoneal, mesenteric and epididymal were dissected and weighed. Subcutaneous fat was also analyzed.
Blood samples (200 μL) were collected from the saphenous vein at time as indicated and at the termination of experiments via cardiac puncture (1 mL) for measurement of insulin, glucagon, and cytokine profiles. Serum was collected by centrifugation and stored at −80° C. until use. Insulin and glucagon concentration in serum samples were determined using insulin ELISA kit (Crystal Chem., Chicago, Ill., USA) and glucagon RIA kit (Linco Research, St. Louis, Miss., USA). Circulating GLP-1 levels were determined using GLP-1 RIA kit (Linco Research, St. Louis, Miss., USA). Cytokine concentration in the serum samples was determined using kit Multiplex Bead-based Cytokine assay (BioRed, Canada).
Pancreas harvesting and tissue processing were performed as described previously (Wang Q, Brubaker P L 2002 Diabetologia. 45(9):1263-73). Briefly, after cardiac puncture under anesthesia, a midlaparotomy was performed and the pancreas was immediately dissected from surrounding tissues, cleared of fat and lymph nodes, blotted, weighed, and placed in a formaldehyde-acetic acid solution. The procedure from completion of cardiac puncture to placement of tissue in fixative was completed within 5 min. After overnight fixation, the pancreas was washed in cold running water, cut into 10-12 segments. […]

8.3-TCR NOD mice = experiment: Prevention of diabetes in transgenic 8.3-TCR NOD mice; type: in vivo
Description: TCR NOD mice were used to investigate the potential role of GABA on the T-cell function. The 8.3-TCR NOD mouse is a severe T1D mouse model (Amrani A et al, 1999 Clin Invest. 103(8):1201-9) and developed diabetic hyperglycemia at about age of 11 wks (FIG. 8A). Autoimmune diabetes in NOD mice results from destruction of pancreatic b-cells by T lymphocytes. The CD8+ cytotoxic T lymphocytes is thought to be the initial beta-cell insult in diabetes in which the initiation is a Fas-dependent process (Amrani A et al, 1999 Clin Invest. 103(8):1201-9). The 8.3-TCR NOD mouse monoclonal T-cells bearing a T-cell receptor (8.3-TCR) that is representative of TCRs used by CD8+ cytotoxic T lymphocytes propagated from the earliest insulitic lesions of NOD mice.
GAD65 has long been considered as a major antigen initiating the pathogenesis in T1D. Given that the protective effects of GABA in the development of diabetes in the diabetic animal models, I proposed that as the rate limiting enzyme of GABA synthesis, GAD has important role in maintaining islet function. To determine if treatment of GABA has effects on the expression levels of GAD65, we performed pancreatic GAD staining in the TCR transgenic NOD mice.
as §1
Following dewaxing, […] as described previously (Wang Q, Brubaker P L 2002 Diabetologia 45:1263-1273), endogenous peroxidase activity was quenched by incubating sections in 0.3% H2O2 in water for 30 min and antigen retrieval was performed by heating slides in 10 mM sodium citrate buffer, pH 6.0, at ˜70° C. for 30 min. […]

INS-1 cells = experiment: Insulin secretion from INS-1 cells; type: cell-based; details: dose dependent
[2] = day 74 after GABA daily administration

Structure (SMILES): NCCCC(=O)O [GABA, gamma-aminobutyric acid]
- glucose tolerance (IPGTT) at 7th days after GABA injections ([1]; 7th day): significantly improved; also recorded: improved glucose tolerance
- blood glucose / diabetic hyperglycemia, course ([1]; daily GABA started at blood glucose>30 mM): started to decline only a few days after GABA injection; also recorded: reverses MLDS-induced diabetic hyperglycemia; also recorded: completely reversed diabetic hyperglycemia
- blood glucose levels at day 74 [1, 2]: closed to the normal range
- glucose tolerance at day 74 [1, 2]: almost identical to control normal mice; also recorded: improved glucose tolerance
- metabolic conditions (metabolic studies) ([1]; established diabetic MLDS mice): normalized metabolic conditions; also recorded: normalized metabolic status
- glucose tolerance at all time points examined ([1]; including two weeks and eight weeks after GABA injections): steadily improves glucose tolerance
- islet morphology ([1]; islet histochemistry): almost normal islet morphology
- lymphocytes in the islets ([1]; islet histochemistry): few lymphocytes were seen
- alpha-cell mass ([1]; vs non-treated MLDS-mice): reduced alpha-cell mass
- beta-cell mass ([1]; vs non-treated MLDS-mice): significant enlarged beta-cell mass; also recorded: significantly restored beta-cell mass
- circulating glucagon ([1]; vs non-treated MLDS-mice): reduced circulating glucagon levels
- circulating insulin ([1]; vs non-treated MLDS-mice): elevated circulating insulin
- ratio of insulin to glucagon ([1]; vs non-treated MLDS-mice): largely increased ratio of insulin to glucagon; also recorded: significantly increased
- alpha-cell mass (8.3-TCR NOD mice; GABA-treated TCR-NOD mice): largely reserved
- islet mass / beta-cell mass (8.3-TCR NOD mice; GABA-treated TCR-NOD mice): largely reserved
- pancreatic insulin and GAD65/67 staining (8.3-TCR NOD mice; TCR transgenic NOD mice): largely reserved the islet beta-cell mass and the intact association with GAD65; also recorded: reserves insulin and GAD65/67 content
- development of diabetic hyperglycemia (8.3-TCR NOD mice; daily GABA vs saline-treated): completely prevented the development of diabetic hyperglycemia; also recorded: completely prevents diabetic hyperglycemia
- lymphocytes (T-cell) infiltration in pancreatic islets (8.3-TCR NOD mice; vs PBS-treated): dramatically blocked; also recorded: obviously diminished
- insulin secretion from INS-1 cells (INS-1 cells): stimulated insulin secretion; also recorded: dose-dependently increases insulin secretion
